Tests used:
RAW 264.7 macrophages = assay: SAFIRE macrophage assay: host toxicity (adherent macrophage count, morphology); format: cell-based
Description: (§1) In SAFIRE, we used MATLAB software to count the number of macrophages that remain adherent and retain the red fluorescence of MitoTracker, an indicator of voltage across the mitochondrial inner membrane. MATLAB then calculates the signal from bacteria (green fluorescent protein [GFP]) that overlaps with macrophages, as defined by MitoTracker, to estimate bacterial load. […] For example, we observed that the 6-trifluoropyrimidin-2-yl group on the right-hand side of EPM35 is apparently toxic to macrophages. Non-toxic analogs that reduced bacterial load by at least 60% at 5 µM and 25 µM in SAFIRE, as compared with DMSO, progressed and were evaluated in SAFIRE across eight or more concentrations, ranging from 0.001 µM to 50 µM (n = 2). […] Each of the top 13 analogs had at least an eightfold increase in potency and were not toxic for macrophages at 50 µM in the SAFIRE assay (Fig. 1C).
(§2) As previously described ([18]), RAW 264.7 macrophages (between passages 1 and 6) were grown in complete Dulbecco’s modified Eagle’s medium (DMEM) to approximately 70% to 90% confluence, scraped, washed, resuspended, diluted to 5 × 10^4 in 100 µL, and seeded in black, 96-well, glass-bottomed plates (Brooks Life Sciences catalog number MGB096-1-2-LG-L) at 37°C with 5% CO2. Twenty-four hours later, bacteria grown overnight in LB were diluted into 50 µL phosphate buffered saline (PBS) and added to a final concentration of 1 × 10^7 S. Typhimurium SL1344 (sifB::gfp) per milliliter ([78]) for an approximate multiplicity of infection of 30 bacteria per macrophage cell. Forty-five minutes after bacterial addition, gentamicin (Sigma catalog number G1264) was added to a final concentration of 40 µg/mL to inhibit the growth of remaining extracellular bacteria. Two hours after infection, gentamicin-containing medium was removed and replaced with 200 µL fresh DMEM with compound or DMSO (Sigma catalog number 276855) to the stated final concentrations. At 17.5 h after infection, PBS containing MitoTracker Red CMXRos (Life Technologies catalog number M7512), a vital dye for mitochondrial electric potential, was added to a final concentration of 100 nM. At 18 h after infection, 16% paraformaldehyde was added to a final concentration of 4% and incubated at room temperature for 15 min. Cells were washed twice with PBS and stained for 20 min with 1 µM 4′,6-diamidino-2-phenylindole (DAPI), a vital dye for double-stranded DNA, and stored in 90% glycerol in PBS until imaging. Samples were imaged in six fields of view per well using a semiautomated Yokogawa CellVoyager CV1000 confocal scanner system with a 20×, 0.75-numerical aperture (NA) objective. A MATLAB algorithm calculated bacterial accumulation (GFP fluorescence) within macrophages, as defined by DAPI and MitoTracker Red. GFP^+ macrophage area was defined as the number of GFP-positive pixels per macrophage divided by the total number of pixels per macrophage, averaged across all macrophages in the field ([34]).

[1] = tested on: S. Typhimurium SL1344 (sifB::gfp) in RAW 264.7 macrophages; assay: SAFIRE macrophage assay: intracellular bacterial load (GFP signal within macrophages); format: cell-based, Salmonella enterica serotype Typhimurium; conditions: 'Toxic' given instead of a score
Description: as §1, §2

| Compound | 5 uM Avg Cell # Score (RAW 264.7 macrophages) | 25 uM Avg Cell # Score (RAW 264.7 macrophages) | 5 uM Avg Antibacterial Score [1] | 25 uM Avg Antibacterial Score [1] |
| --- | --- | --- | --- | --- |
| OC(COc1ccccc1Cl)CN1CCC(Nc2nccc(C(F)(F)F)n2)C1 (centres unmarked) [CU084] | 96 | 46 | 93 | Toxic |
| OC(COc1cccc(Cl)c1)CN1CCC(Nc2nccc(C(F)(F)F)n2)C1 (centres unmarked) [CU085] | 92 | 33 | 47 | Toxic |
| OC(COc1ccc(Cl)cc1)CN1CCC(Nc2nccc(C(F)(F)F)n2)C1 (centres unmarked) [CU086] | 89 | 27 | 71 | Toxic |
| OC(COc1ccc(Cl)cc1Cl)CN1CCC(Nc2nccc(C(F)(F)F)n2)C1 (centres unmarked) [CU087] | 98 | 78 | 36 | Toxic |
| OC(COc1cc(Cl)cc(Cl)c1)CN1CCC(Nc2nccc(C(F)(F)F)n2)C1 (centres unmarked) [CU088] | 101 | 98 | 22 | Toxic |
| OC(COc1ccc(Cl)c(Cl)c1)CN1CCC(Nc2nccc(C(F)(F)F)n2)C1 (centres unmarked) [CU089] | 101 | 91 | 30 | Toxic |
| CCOC(=O)c1cccc(OCC(O)CN2CCC(Nc3nccc(C(F)(F)F)n3)C2)c1 (centres unmarked) [CU090] | 91 | 48 | 70 | Toxic |
| COC(=O)c1ccc(OCC(O)CN2CCC(Nc3nccc(C(F)(F)F)n3)C2)cc1 (centres unmarked) [CU091] | 89 | 95 | 97 | 9.52 |
| OC(COc1cccc(C(F)(F)F)c1)CN1CCC(Nc2nccc(C(F)(F)F)n2)C1 (centres unmarked) [CU092] | 86 | 72 | 41 | Toxic |
| N#Cc1ccccc1OCC(O)CN1CCC(Nc2nccc(C(F)(F)F)n2)C1 (centres unmarked) [CU093] | 93 | 79 | 102 | 58 |
| N#Cc1ccc(OCC(O)CN2CCC(Nc3nccc(C(F)(F)F)n3)C2)cc1 (centres unmarked) [CU094] | 91 | 71 | 105 | 41 |
| COc1ccccc1OCC(O)CN1CCC(Nc2nccc(C(F)(F)F)n2)C1 (centres unmarked) [CU095] | 88 | 83 | 100 | 43 |
| COc1ccc(OCC(O)CN2CCC(Nc3nccc(C(F)(F)F)n3)C2)cc1 (centres unmarked) [CU096] | 74 | 92 | 103 | 29 |
| OC(COc1ccc(F)cc1)CN1CCC(Nc2nccc(C(F)(F)F)n2)C1 (centres unmarked) [CU097] | 95 | 95 | 100 | 6.44 |
| OC(COc1ccc(F)cc1F)CN1CCC(Nc2nccc(C(F)(F)F)n2)C1 (centres unmarked) [CU098] | 89 | 88 | 92 | 12 |
| OC(COc1ccc2c(c1)OCO2)CN1CCC(Nc2nccc(C(F)(F)F)n2)C1 (centres unmarked) [CU099] | 77 | 102 | 104 | 25 |

| Compound | 5 uM Avg Cell # Score (RAW 264.7 macrophages) | 25 uM Avg Cell # Score (RAW 264.7 macrophages) | 5 uM Avg Antibacterial Score [1] | 25 uM Avg Antibacterial Score [1] |
| --- | --- | --- | --- | --- |
| CC(=O)Nc1cccc(OCC(O)CN2CCC(Nc3nccc(C(F)(F)F)n3)C2)c1 (centres unmarked) [CU100] | 80 | 96 | 105 | 110 |
| OC(COc1cc(Cl)cc(Cl)c1)CN1CCC(Nc2nccc(C(F)(F)F)n2)CC1 (centres unmarked) [CU101] | 71 | 73 | 9 | Toxic |
| OC(COc1cccc(Cl)c1)CN1CCC(Nc2nccc(C(F)(F)F)n2)CC1 (centres unmarked) [CU102] | 82 | 51 | 18 | Toxic |
| OC(COc1cccc(C(F)(F)F)c1)CN1CCC(Nc2nccc(C(F)(F)F)n2)CC1 (centres unmarked) [CU103] | 82 | 71 | 9 | Toxic |
| CCOC(=O)c1cccc(OCC(O)CN2CCC(Nc3nccc(C(F)(F)F)n3)CC2)c1 (centres unmarked) [CU104] | 98 | 61 | 13 | Toxic |
| OC(COc1ccccc1F)CN1CCC(Nc2nccc(C(F)(F)F)n2)CC1 (centres unmarked) [CU105] | 79 | 98 | 102 | 14 |
| OC(COc1ccccc1C(F)(F)F)CN1CCC(Nc2nccc(C(F)(F)F)n2)CC1 (centres unmarked) [CU106] | 79 | 44 | 8 | Toxic |
| OC(COc1cccc(Br)c1)CN1CCC(Nc2nccc(C(F)(F)F)n2)CC1 (centres unmarked) [CU107] | 90 | 41 | 10 | Toxic |
| Cc1cccc(OCC(O)CN2CCC(Nc3nccc(C(F)(F)F)n3)CC2)c1 (centres unmarked) [CU108] | 94 | 27 | 28 | Toxic |
| OC(COc1c(Cl)cccc1Cl)CN1CCC(Nc2nccc(C(F)(F)F)n2)CC1 (centres unmarked) [CU109] | 74 | 44 | 56 | Toxic |
| O=C(CCOc1ccc(Cl)c(Cl)c1)N1CCC(Nc2nccc(C(F)(F)F)n2)CC1 [CU110] | 79 | 27 | 107 | Toxic |
| O=C(CCOc1ccc(Cl)c(Cl)c1)N1CCC(Nc2nccc(C(F)(F)F)n2)C1 (centres unmarked) [CU111] | 86 | 47 | 106 | 104 |
| OC(COc1ccccc1C(F)(F)F)CN1CCC(Nc2nccc(C(F)(F)F)n2)C1 (centres unmarked) [CU112] | 88 | 59 | 47 | Toxic |
| OC(COc1cccc(Br)c1)CN1CCC(Nc2nccc(C(F)(F)F)n2)C1 (centres unmarked) [CU113] | 92 | 49 | 68 | Toxic |
| Cc1cccc(OCC(O)CN2CCC(Nc3nccc(C(F)(F)F)n3)C2)c1 (centres unmarked) [CU114] | 99 | 146 | 96 | 5.57 |
| OC(COc1c(Cl)cccc1Cl)CN1CCC(Nc2nccc(C(F)(F)F)n2)C1 (centres unmarked) [CU115] | 93 | 59 | 99 | Toxic |
